Reference: publication PMC5108564, “Use of ferrous iron by metallo-β-lactamases” (Journal of Inorganic Biochemistry, 2016)
“And” between values parts separate entries of the source, which are not always exact repeats. Identical values can stand only once.

What was measured:
di-Zn(II) BcII [1] = molecular target: T1, di-Zn(II) BcII (Bacillus cereus, UniProt P04190); assay: Stopped-flow UV/Vis absorption kinetics of nitrocefin hydrolysis; format: biochemical; conditions: for Substrate Decay: 1:1 enzyme:nitrocefin, 5 °C; for Product accumulation: 1:1, 5 °C
T1 construct: made in house; host or cells: E. coli BL21(DE3)pLysS
Experimental: (§1) All metal solutions and metal-substituted enzymes for stopped-flow kinetics were prepared at ≤ 40 ppm O2 using deoxygenated buffers. Buffers used were: 50 mM HEPES pH 7.5, 200 mM NaCl; 50 mM MES pH 6.5, 200 mM NaCl; 50 mM MES pH 5.5, 200 mM NaCl. All buffers were treated with Chelex 100 to remove residual metal ions. Aliquots of apo-enzyme were diluted to 100 μM by addition of reaction buffer (1 mL final volume). The enzyme was incubated with two equivalents of tris(2-carboxyethyl)phosphine hydrochloride salt (TCEP·HCl), by addition of 2 μL of a 100 mM stock, for 5 min. Metal-substituted enzymes were then produced by the addition of 3.5 equivalents of metal salt to the apo-enzyme (3.5 μL of a 100 mM stock in buffer). […] Spectra were recorded over 100 s using a photodiode-array detector. Subsequent analysis of kinetic traces was carried out using Origin 8.5 [41]. Curves corresponding to substrate depletion (390 nm) and product accumulation (485 nm) were fitted by a single exponential function, whilst 665 nm features were fitted by a double exponential function.
(§2) Note that difference spectra were employed to identify the λmax of the feature and indicate that the feature corresponds to an independent species. […] Thus the observation of a visible reaction intermediate absorbing at 665 nm depends on the particular metal-enzyme combination employed.

di-Fe(II) VIM-2 [2] = molecular target: T2, di-Fe(II) VIM-2 (Pseudomonas aeruginosa, UniProt Q9K2N0); assay: as above; format: biochemical; design: His-tag (3C protease site) (N, cleaved yes); made in house; host or cells: E. coli BL21(DE3)pLysS; conditions: 1:1, 5 °C
Experimental: as §1, §2

di-Zn(II) VIM-2 [3] = molecular target: T3, di-Zn(II) VIM-2 (Pseudomonas aeruginosa, UniProt Q9K2N0); assay: as above; format: biochemical; design: His-tag (3C protease site) (N, cleaved yes); made in house; host or cells: E. coli BL21(DE3)pLysS; conditions: 1:1, 5 °C
Experimental: as §1, §2

di-Fe(II) BcII [4] = molecular target: T4, di-Fe(II) BcII (Bacillus cereus, UniProt P04190); assay: as above; format: biochemical; design: k1 / k-1 / k2 / k3 / k4 / k5: unit not given here; conditions: for Substrate Decay / Product accumulation / Intermediate Decay / Intermediate accumulation: Fe(II), 1:1, 5 °C; for k1: 50 µM enzyme, 50 µM nitrocefin
T4 construct: made in house; host or cells: E. coli BL21(DE3)pLysS
Experimental: as §1, §2
The observation of an intermediate at 665 nm with di-Fe(II) BcII strongly correlates with increasing pH, with a larger change in absorbance amplitude at pH 7.5 (ΔAbsmax at pH 7.5 is 0.25 compared to ΔAbsmax at pH 6.5 and 5.5 of 0.15 and 0.05, respectively, Fig. 2 & Figs. S4–5). […] Data fitting using the Kintek Explorer package was unable to distinguish between linear and branched pathways (Fig. S11), but in both fittings the decay of the intermediate species was identified as the rate-limiting step (k3 and k4 in Tables S4 and S5, respectively). Although intermediate decay is apparently rate limiting, a negligible amount of intermediate is seen at pH 5.5. This may be explained either by a branched pathway, in which the branch with no intermediate is favoured by lower pH, or by a linear pathway in which the rate of decay of the intermediate rises with a decrease in pH thus preventing an observable accumulation of intermediate.

[5] = system: C[C@@H](O)[C@H]1C(=O)N2C(C(=O)O)=C(S[C@@H]3CN[C@H](C(=O)N(C)C)C3)[C@H](C)[C@H]12; assay: purified protein, by the assay type; conditions: other: meropenem as substrate, [E] 2 nM
Experimental: (§5) Steady-state kinetic studies were carried out using a Pherastar FS microplate reader and UV-Star 96 well clear microplates (Greiner Bio-One). Samples of 1 mM apo-enzyme were pre-incubated with two equivalents of TCEP·HCl for 5 min prior to addition of 3.5 equivalents of the desired metal before dilution to concentrations required for kinetic assays. For Fe(II)-substituted enzymes, plates were prepared at ≤ 2 ppm O2 using deoxygenated buffer and sealed prior to absorbance readings. […] Substrate concentrations ranged between 400 μM and 0.4 μM. The Michaelis-Menten equation was fitted to data by non-linear regression using GraphPad Prism software to calculate the Michaelis-Menten constant and the limiting rate [43].

[6] = system: O=C(Cc1cccs1)N[C@@H]1C(=O)N2C(C(=O)O)=C(/C=C/c3ccc([N+](=O)[O-])cc3[N+](=O)[O-])CS[C@H]12; assay: purified protein, by the assay type; conditions: other: nitrocefin as substrate
di-Fe(II) BcII [7] = molecular target: T4, di-Fe(II) BcII; assay: Inhibition assay with nitrocefin as reporter substrate; format: biochemical
Experimental: (§3) Enzyme concentrations were the same as those employed in equilibrium kinetic studies. […] Residual enzyme activity was determined for a range of inhibitor concentrations. Non-linear regression fitting of IC50 curves was carried out using a three-parameter dose-response curve in GraphPad Prism. Errors are expressed as: σlogIC50/logIC50×IC50 .
(§4) MBL inhibition is a current target for medicinal chemistry, [63]. Given the observed differences in metal binding geometries between the di-Fe(II) and di-Zn(II) form of BcII and in the kinetic properties of di-Fe(II) BcII and VIM-2 compared to their di-Zn(II) enzymes, we then investigated whether the two metal-substituted BcII enzymes might respond differently to known MBL inhibitors (Table 3 and Fig. S12). We were particularly interested to see if the two enzyme forms responded differently to thiol-based MBL inhibitors, since the sulfur often bridges the two metal centres as an analogue of the bridging water during inhibition, [64].

di-Zn(II) BcII [8] = molecular target: T1, di-Zn(II) BcII; assay: as above; format: biochemical
Experimental: as §3, §4

di-Fe(II) VIM-2 [9] = molecular target: T2, di-Fe(II) VIM-2; conditions: meropenem as substrate, VIM-2 Fe(II), [E] 30 nM, low O2
Experimental: as §5

di-Zn(II) VIM-2 [10] = molecular target: T3, di-Zn(II) VIM-2; conditions: meropenem as substrate, VIM-2 Zn(II), [E] 5 nM
Experimental: as §5

[11] = Kintek Explorer fit, branched mechanism, pH 7.5, 5°C
[12] = Kintek Explorer fit, linear mechanism, pH 7.5, 5°C

T1 sequence (P04190 31-257): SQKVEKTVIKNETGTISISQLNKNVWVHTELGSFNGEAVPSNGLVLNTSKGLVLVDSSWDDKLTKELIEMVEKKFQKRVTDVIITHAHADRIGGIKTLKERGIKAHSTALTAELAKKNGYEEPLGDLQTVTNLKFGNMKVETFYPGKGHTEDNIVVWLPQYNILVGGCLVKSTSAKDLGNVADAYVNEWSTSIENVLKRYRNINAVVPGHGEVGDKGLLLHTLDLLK
T4 sequence (P04190 31-257): as above

## O=C(Cc1cccs1)N[C@@H]1C(=O)N2C(C(=O)O)=C(/C=C/c3ccc([N+](=O)[O-])cc3[N+](=O)[O-])CS[C@H]12 [nitrocefin]
di-Zn(II) BcII [1]; pH 5.5, 390 nm
  Substrate Decay: 4.16 s⁻¹ and 4.16 ± 0.01 s⁻¹
di-Zn(II) BcII [1]; pH 5.5, 485 nm
  Product accumulation: 4.13 ± 0.01 s⁻¹
di-Zn(II) BcII [1]; pH 6.5, 390 nm
  Substrate Decay: 3.24 ± 0.01 s⁻¹
di-Zn(II) BcII [1]; pH 6.5, 485 nm
  Product accumulation: 3.29 ± 0.01 s⁻¹
di-Zn(II) BcII [1]; pH 7.5, 390 nm
  Substrate Decay: 2.55 s⁻¹ and 2.55 ± 0.01 s⁻¹
di-Zn(II) BcII [1]; pH 7.5, 485 nm
  Product accumulation: 2.75 ± 0.01 s⁻¹
di-Fe(II) VIM-2 [2]; pH 5.5, 390 nm
  Substrate Decay: 35 s⁻¹ and 35 ± 1 s⁻¹
di-Fe(II) VIM-2 [2]; pH 5.5, 485 nm
  Product accumulation: 23.4 ± 0.5 s⁻¹
di-Fe(II) VIM-2 [2]; pH 6.5, 390 nm
  Substrate Decay: 0.24 s⁻¹ and 0.24 ± 0.01 s⁻¹
di-Fe(II) VIM-2 [2]; pH 6.5, 485 nm
  Product accumulation: 0.44 ± 0.01 s⁻¹
di-Fe(II) VIM-2 [2]; pH 7.5, 390 nm
  Substrate Decay: 0.15 s⁻¹ and 0.15 ± 0.01 s⁻¹
di-Fe(II) VIM-2 [2]; pH 7.5, 485 nm
  Product accumulation: 0.35 ± 0.01 s⁻¹
di-Zn(II) VIM-2 [3]; pH 5.5, 390 nm
  Substrate Decay: 190 s⁻¹ and 190 ± 4 s⁻¹
di-Zn(II) VIM-2 [3]; pH 5.5, 485 nm
  Product accumulation: 93 ± 2 s⁻¹
di-Zn(II) VIM-2 [3]; pH 5.5, 665 nm
  Intermediate Decay: 120 ± 10 s⁻¹
  Intermediate accumulation: 220 ± 20 s⁻¹
di-Zn(II) VIM-2 [3]; pH 6.5, 390 nm
  Substrate Decay: 290 ± 10 s⁻¹
di-Zn(II) VIM-2 [3]; pH 6.5, 485 nm
  Product accumulation: 130 ± 4 s⁻¹
di-Zn(II) VIM-2 [3]; pH 6.5, 665 nm
  Intermediate Decay: 160 ± 30 s⁻¹
  Intermediate accumulation: 320 ± 80 s⁻¹
di-Zn(II) VIM-2 [3]; pH 7.5, 390 nm
  Substrate Decay: 320 s⁻¹ and 320 ± 30 s⁻¹
di-Zn(II) VIM-2 [3]; pH 7.5, 485 nm
  Product accumulation: 140 ± 5 s⁻¹
di-Zn(II) VIM-2 [3]; pH 7.5, 665 nm
  Intermediate Decay: 180 ± 50 s⁻¹
di-Fe(II) BcII [4]; pH 5.5, 390 nm
  Substrate Decay: 3.88 s⁻¹ and 3.88 ± 0.01 s⁻¹
di-Fe(II) BcII [4]; pH 5.5, 485 nm
  Product accumulation: 5.78 ± 0.01 s⁻¹
di-Fe(II) BcII [4]; pH 6.5, 390 nm
  Substrate Decay: 5.25 ± 0.01 s⁻¹
di-Fe(II) BcII [4]; pH 6.5, 485 nm
  Product accumulation: 4.27 ± 0.01 s⁻¹
di-Fe(II) BcII [4]; pH 6.5, 665 nm
  Intermediate Decay: 1.2 ± 0.1 s⁻¹
  Intermediate accumulation: 18.31 ± 0.01 s⁻¹
di-Fe(II) BcII [4]; pH 7.5, 390 nm
  Substrate Decay: 7.25 s⁻¹ and 7.25 ± 0.01 s⁻¹
di-Fe(II) BcII [4]; pH 7.5, 485 nm
  Product accumulation: 7.20 ± 0.01 s⁻¹
di-Fe(II) BcII [4]; pH 7.5, 665 nm
  Intermediate Decay: 1.4 ± 0.1 s⁻¹
  Intermediate accumulation: 20.32 ± 0.01 s⁻¹
di-Fe(II) BcII [4]; [11]
  k1: 239000
  k2: 46
  k3: 73.4
  k-1: 0.0000001
di-Fe(II) BcII [4]; Kintek Explorer fit, branched mechanism, pH 7.5, 5°C, fixed
  k5: 100000000
di-Fe(II) BcII [4]; Kintek Explorer fit, branched mechanism, pH 7.5, 5°C, intermediate decay, rate-limiting
  k4: 4.18
di-Fe(II) BcII [4]; [12]
  k1: 225000
  k2: 82.7
  k-1: 0.000000403
di-Fe(II) BcII [4]; Kintek Explorer fit, linear mechanism, pH 7.5, 5°C, fixed
  k4: 100000000
di-Fe(II) BcII [4]; Kintek Explorer fit, linear mechanism, pH 7.5, 5°C, intermediate decay, rate-limiting
  k3: 7.2

## di-Fe(II) BcII (Bacillus cereus)
[5]; BcII Fe(II), low O2
  Km: 230 ± 30 µM
  kcat: 38 ± 2 s⁻¹
  kcat/Km: 170000 M⁻¹ s⁻¹
[6]; BcII Fe(II), [E] 2 nM, low O2
  Km: 11 ± 2 µM
  kcat: 12.5 s⁻¹
  kcat/Km: 1.2e+06 M⁻¹ s⁻¹

## O=C(O)C(S)c1ccccc1 (stereo not shown) [Thiomandelic acid]
di-Fe(II) BcII [7]
  IC50: 2.8 ± 0.8 µM
di-Zn(II) BcII [8]
  IC50: 1.3 ± 0.3 µM

## C[C@@H](O)[C@H]1C(=O)N2C(C(=O)O)=C(S[C@@H]3CN[C@H](C(=O)N(C)C)C3)[C@H](C)[C@H]12 [meropenem]
di-Fe(II) VIM-2 [9]
  Km: 16 ± 2 µM
  kcat: 0.5 ± 0.0 s⁻¹
di-Zn(II) VIM-2 [10]
  Km: 10 ± 2 µM
  kcat: 2.4 ± 0.1 s⁻¹

## O=C(O)/C(S)=C/c1c(Cl)ccc(Cl)c1Cl [ML302F]
di-Fe(II) BcII [7]
  IC50: 0.38 ± 0.08 µM
di-Fe(II) BcII [7]; di-Fe(II) BcII versus di-Zn(II) BcII
  fold difference in IC50: ~10 fold
di-Zn(II) BcII [8]
  IC50: 0.046 ± 0.001 µM

## O=C(O)CN(CCN(CC(=O)O)CC(=O)O)CC(=O)O [EDTA]
di-Fe(II) BcII [7]
  IC50: 4700 ± 100 µM
di-Zn(II) BcII [8]
  IC50: 7500 ± 300 µM

## di-Fe(II) VIM-2 (Pseudomonas aeruginosa)
[6]; VIM-2 Fe(II), [E] 1 nM, low O2
  Km: 32 ± 5 µM
  kcat: 44 s⁻¹
  kcat/Km: 1.4e+06 M⁻¹ s⁻¹

## di-Zn(II) VIM-2 (Pseudomonas aeruginosa)
[6]; VIM-2 Zn(II), [E] 0.1 nM
  Km: 9 ± 1 µM
  kcat: 143 s⁻¹
  kcat/Km: 1.6e+07 M⁻¹ s⁻¹

## di-Zn(II) BcII (Bacillus cereus)
[5]; BcII Zn(II)
  Km: 220 ± 20 µM
  kcat: 89 ± 3 s⁻¹
  kcat/Km: 400000 M⁻¹ s⁻¹
[6]; BcII Zn(II), [E] 2 nM
  Km: 12 ± 2 µM
  kcat: 10.1 s⁻¹
  kcat/Km: 820000 M⁻¹ s⁻¹
